Experimental data reported in EP4745153A1, “GLP-1, GIP AND GCG RECEPTOR […] USE THEREOF” (Jiangsu Hengrui Pharmaceuticals Co., Ltd., priority 2023, dated 2025).
Read-outs that look alike come from different tables or passages of the source. Starred links: 1 amine or outer side, 2 acyl side, 3 side chain; linkers in the order of their positions; H or OH if unused. Non-standard residues stand in square brackets, D forms with d. Residues, ends and D or L forms follow the SMILES beside them. Groups on a side chain read outwards from the residue. ξ: configuration not given here. *: point of attachment. C20 diacid = O=C(O)CCCCCCCCCCCCCCCCCCC(=O)*; γGlu = O=C(O)[C@H](CCC(=O)[*:2])N[*:1]; αMeK = C[C@](N)(CCCCN)C(=O)O; ξIva = CCC(C)(N)C(=O)O; AEEA = NCCOCCOCC(=O)O; Aib = CC(C)(N)C(=O)O

Columns and labels:
[1] = Pharmacokinetics in mice after single intravenous injection; parameters: species or system C57 mice; details: in vivo
Description: Male C57 mice were used as test animals. The target compound was administered via a single intravenous injection, and the pharmacokinetic characteristics of the compound in C57 mice in vivo (plasma) were determined.
Male C57 mice, weighing approximately 25g, aged 4-6 weeks. After preparing the polypeptide compound solution using 1×PBS dissolving solution, the compound was administered intravenously at a dose of 200 nmol/kg, where each compound was administered to 3 animals. Blood samples of 60 µL were collected at 5 min, 15 min, 0.5 h, 1 h, 2 h, 4 h, 6 h, 24 h, 48 h and 72 h after the infusion was completed and transferred to centrifuge tubes containing EDTA-K2 anticoagulant. Whole blood samples were centrifuged at 4000 g for 5 min at 4°C. Plasma was separated and plasma samples were frozen and stored at -80 °C.
Sample pretreatment method: 30 µL of plasma samples was taken, and 120 µL of 0.1% formic acid in methanol containing 1 ng/mL internal standard verapamil was added. The mixture was vortexed for 5 min, and centrifuged at 10000 rpm for 10 min at low temperature. 70 µL of supernatant was taken, and 70 µL of water was added and mixed well. Analysis was performed by LC-MS instrument.
LC-MS analysis method: (1) chromatographic conditions: mobile phases A and B: 0.1% formic acid in water and 0.1% formic acid in acetonitrile, respectively; gradient elution mode; flow rate: 0.5 mL/min; injection volume: 10 µL; chromatographic column: nanomicro Unisil C18aq (4.6 mm × 150 mm, 5 µm); column temperature: 40°C. (2) Mass spectrometry conditions: For mass spectrometry, an electrospray ionization source (ESI), positive ion analysis mode, and multiple reaction monitoring (MRM) scanning mode were used.
For data processing, SCIEX OS (Version 2.1.6) software was used to quantify blood drug concentration data and PKSolver (Version 2.0) software was used to calculate pharmacokinetic parameters.

human GIPR = target: T1, human GIPR (Homo sapiens, UniProt P48546); assay: cAMP HTRF agonist activity assay in CHO-K1 cells expressing GIPR; assay type: cell-based; details: read-out: Activity against human GIPR (EC50 nM); note: 5% FBS, 0.1% Casein
T1 construct: expressed in transfected cells; host or cells: CHO-K1 clonal cell line
T1 sequence (P48546 22-466): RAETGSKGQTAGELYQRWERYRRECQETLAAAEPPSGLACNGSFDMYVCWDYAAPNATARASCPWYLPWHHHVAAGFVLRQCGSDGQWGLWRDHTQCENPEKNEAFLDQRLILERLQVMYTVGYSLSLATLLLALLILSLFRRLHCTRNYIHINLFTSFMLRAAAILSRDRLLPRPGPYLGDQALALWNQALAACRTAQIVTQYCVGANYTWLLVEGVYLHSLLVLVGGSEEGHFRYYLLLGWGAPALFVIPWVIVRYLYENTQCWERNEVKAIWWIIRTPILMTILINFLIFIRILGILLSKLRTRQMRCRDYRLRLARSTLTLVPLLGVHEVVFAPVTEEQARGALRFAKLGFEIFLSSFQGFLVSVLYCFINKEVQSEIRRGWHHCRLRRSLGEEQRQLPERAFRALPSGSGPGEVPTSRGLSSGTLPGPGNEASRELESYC
Description: Functional activity was determined in CHO-K1 clonal cell lines expressing GIPR, GLP-1R, and GCGR. […] Each recipient cell (5000 cells/well) was added to an SV 96-well plate (Cisbio, 66PL96025) and incubated with the prepared polypeptide at 37°Cfor 30 min. The resulting increase in intracellular cAMP was quantitatively measured using the cAMP-GS dynamic HTRF assay kit (Cisbio, 62AM4PEJ). Briefly, the intracellular cAMP levels were determined by adding cAMP-d2 conjugate in cell lysis buffer, followed by the antibody anti-cAMP-Eu cryptate (also in cell lysis buffer).
Using the maximum response percentage vs. the added polypeptide concentration, the relative EC50 values were derived through nonlinear regression analysis and fitted to a four-parameter logarithmic equation. For specific data, refer to Tables 7-1 to 7-8 below. […]

[2] = mouse, male C57 mice, single intravenous dose 200 nmol/kg, plasma

With `CC[C@H](C)[C@H](NC(=O)[C@H](CC(C)C)NC(=O)[C@H](Cc1c[nH]c2ccccc12)NC(=O)[C@H](CCC(=O)O)NC(=O)[C@@H](NC(=O)[C@H](Cc1ccccc1)NC(=O)[C@H](CCC(=O)O)NC(=O)C(C)(CC)NC(=O)[C@H](C)NC(=O)[C@H](C)NC(=O)[C@H](CCCCN)NC(=O)[C@H](CCCCNC(=O)COCCOCCNC(=O)COCCOCCNC(=O)CC[C@H](NC(=O)CCCCCCCCCCCCCCCCCCC(=O)O)C(=O)O)NC(=O)[C@H](CCC(=O)O)NC(=O)[C@H](CC(C)C)NC(=O)[C@H](CC(C)C)NC(=O)[C@](C)(CCCCN)NC(=O)[C@H](CO)NC(=O)[C@H](Cc1ccc(O)cc1)NC(=O)[C@H](CC(=O)O)NC(=O)[C@H](CO)NC(=O)[C@@H](NC(=O)[C@H](Cc1ccccc1)NC(=O)[C@@H](NC(=O)CNC(=O)[C@H](Cc1c[nH]cn1)NC(=O)C(C)(C)NC(=O)[C@@H](N)Cc1c[nH]cn1)[C@@H](C)O)[C@@H](C)O)C(C)C)C(=O)N[C@@H](CCC(=O)O)C(=O)NCC(=O)NCC(=O)N1CCC[C@H]1C(=O)N[C@@H](CO)C(=O)N[C@@H](CO)C(=O)NCC(=O)N[C@@H](C)C(=O)N1CCC[C@H]1C(=O)N1CCC[C@H]1C(=O)N1CCC[C@H]1C(=O)N[C@@H](CO)C(N)=O` (stereo partly drawn) [Compound 0131] (H-H[Aib]HGTFTSDYS[αMeK]LLEK([AEEA-AEEA-γGlu-C20 diacid])KAA[ξIva]EFVEWLIEGGPSSGAPPPS-NH2) the AUC(0-inf) [1, 2] was 22.5 µM·h, the C0 [1, 2] was 5.98 µM and the clearance ([1]; mouse, male C57 mice, single intravenous dose 200 nmol/kg, plasma, read-out: CLp) was 0.148 mL/min/kg. For the same compound, the half-life ([1]; mouse, male C57 mice, single intravenous dose 200 nmol/kg, plasma, read-out: T1/2 (converted)) was 10.2 h.
In the case of `CC[C@H](C)[C@H](NC(=O)[C@](C)(CCCCN)NC(=O)[C@H](CO)NC(=O)[C@H](Cc1ccc(O)cc1)NC(=O)[C@H](CC(=O)O)NC(=O)[C@H](CO)NC(=O)[C@@H](NC(=O)[C@H](Cc1ccccc1)NC(=O)[C@@H](NC(=O)CNC(=O)[C@H](CCC(N)=O)NC(=O)C(C)(C)NC(=O)[C@@H](N)Cc1ccc(O)cc1)[C@@H](C)O)[C@@H](C)O)C(=O)N[C@@H](CC(C)C)C(=O)N[C@@H](CCC(=O)O)C(=O)N[C@@H](CCCCNC(=O)COCCOCCNC(=O)COCCOCCNC(=O)CC[C@H](NC(=O)CCCCCCCCCCCCCCCCCCC(=O)O)C(=O)O)C(=O)N[C@@H](CCCCN)C(=O)N[C@@H](C)C(=O)N[C@@H](C)C(=O)NC(C)(CC)C(=O)N[C@@H](CCC(=O)O)C(=O)N[C@@H](Cc1ccccc1)C(=O)N[C@H](C(=O)N[C@@H](CCC(=O)O)C(=O)N[C@@H](Cc1c[nH]c2ccccc12)C(=O)N[C@@H](CC(C)C)C(=O)N[C@@H](CC(C)C)C(=O)N[C@@H](C)C(=O)NCC(=O)NCC(=O)N1CCC[C@H]1C(=O)N[C@@H](CO)C(=O)N[C@@H](CO)C(=O)NCC(=O)N[C@@H](C)C(=O)N1CCC[C@H]1C(=O)N1CCC[C@H]1C(=O)N1CCC[C@H]1C(=O)N[C@@H](CO)C(N)=O)C(C)C` (stereo partly drawn) [Compound 0129] (H-Y[Aib]QGTFTSDYS[αMeK]ILEK([AEEA-AEEA-γGlu-C20 diacid])KAA[ξIva]EFVEWLLAGGPSSGAPPPS-NH2), the EC50 (human GIPR) is reported as 0.002 nM.
Compound `CC[C@H](C)[C@H](NC(=O)[C@H](CO)NC(=O)[C@H](CC(C)C)NC(=O)[C@H](CC(=O)O)NC(=O)[C@H](CO)NC(=O)[C@@H](NC(=O)[C@H](Cc1ccccc1)NC(=O)[C@@H](NC(=O)CNC(=O)[C@H](Cc1c[nH]cn1)NC(=O)C(C)(C)NC(=O)[C@@H](N)Cc1c[nH]cn1)[C@@H](C)O)[C@@H](C)O)C(=O)N[C@@](C)(CC(C)C)C(=O)N[C@@H](CC(C)C)C(=O)N[C@@H](CCC(=O)O)C(=O)N[C@@H](CCCCNC(=O)COCCOCCNC(=O)COCCOCCNC(=O)CC[C@H](NC(=O)CCCCCCCCCCCCCCCCCCC(=O)O)C(=O)O)C(=O)N[C@@H](CCCCN)C(=O)N[C@@H](C)C(=O)N[C@@H](C)C(=O)NC1(C(=O)N[C@@H](CCC(=O)O)C(=O)N[C@@H](Cc2ccccc2)C(=O)N[C@H](C(=O)N[C@@H](CCC(=O)O)C(=O)N[C@@H](Cc2c[nH]c3ccccc23)C(=O)N[C@@H](CC(C)C)C(=O)N[C@@H](CC(C)C)C(=O)N[C@@H](C)C(=O)NCC(=O)NCC(=O)N2CCC[C@H]2C(=O)N[C@@H](CO)C(=O)N[C@@H](CO)C(=O)NCC(=O)N[C@@H](C)C(=O)N2CCC[C@H]2C(=O)N2CCC[C@H]2C(=O)N2CCC[C@H]2C(=O)N[C@@H](CO)C(N)=O)C(C)C)CCC1` [Compound 0140] has a clearance ([1]; male, C57, mouse, iv) of 0.115 mL/min/kg and a half-life ([1]; male, C57, mouse, iv) of 9.3 h.
Work on `CC[C@H](C)[C@H](NC(=O)[C@H](CO)NC(=O)[C@H](Cc1ccc(O)cc1)NC(=O)[C@H](CC(=O)O)NC(=O)[C@H](CO)NC(=O)[C@@H](NC(=O)[C@H](Cc1ccccc1)NC(=O)[C@@H](NC(=O)CNC(=O)[C@H](Cc1c[nH]cn1)NC(=O)C(C)(C)NC(=O)[C@@H](N)Cc1c[nH]cn1)[C@@H](C)O)[C@@H](C)O)C(=O)N[C@@H](CC(C)C)C(=O)N[C@@H](CC(C)C)C(=O)N[C@@H](CCC(=O)O)C(=O)N[C@@H](CCCCNC(=O)COCCOCCNC(=O)COCCOCCNC(=O)CC[C@H](NC(=O)CCCCCCCCCCCCCCCCCCC(=O)O)C(=O)O)C(=O)N[C@@H](CCC(N)=O)C(=O)N[C@@H](C)C(=O)N[C@@H](C)C(=O)NC1(C(=O)N[C@@H](CCC(=O)O)C(=O)N[C@@H](Cc2ccccc2)C(=O)N[C@H](C(=O)N[C@@H](CCC(=O)O)C(=O)N[C@@H](Cc2c[nH]c3ccccc23)C(=O)N[C@@H](CC(C)C)C(=O)N[C@@H](CC(C)C)C(=O)N[C@@H](C)C(=O)N[C@H](CCC(=O)O)C(=O)NCC(=O)N2CCC[C@H]2C(=O)N[C@@H](CO)C(=O)N[C@@H](CO)C(=O)NCC(=O)N[C@@H](C)C(=O)N2CCC[C@H]2C(=O)N2CCC[C@H]2C(=O)N2CCC[C@H]2C(=O)N[C@@H](CO)C(N)=O)C(C)C)CCC1` [Compound 0150] yielded an EC50 (human GIPR) of 0.002 nM.
`CC[C@H](C)[C@H](NC(=O)[C@H](CO)NC(=O)[C@H](Cc1ccc(O)cc1)NC(=O)[C@H](CC(=O)O)NC(=O)[C@H](CO)NC(=O)[C@@H](NC(=O)[C@H](Cc1ccccc1)NC(=O)[C@@H](NC(=O)CNC(=O)[C@H](CCC(N)=O)NC(=O)C(C)(C)NC(=O)[C@@H](N)Cc1c[nH]cn1)[C@@H](C)O)[C@@H](C)O)C(=O)N[C@@H](CC(C)C)C(=O)N[C@@H](CC(C)C)C(=O)N[C@@H](CCC(=O)O)C(=O)N[C@@H](CCCCNC(=O)COCCOCCNC(=O)COCCOCCNC(=O)CC[C@H](NC(=O)CCCCCCCCCCCCCCCCCCC(=O)O)C(=O)O)C(=O)N[C@@H](CCCCN)C(=O)N[C@@H](C)C(=O)N[C@@H](C)C(=O)NC(C)(C)C(=O)N[C@@H](CCC(=O)O)C(=O)N[C@@H](Cc1ccccc1)C(=O)N[C@H](C(=O)N[C@@H](CCC(=O)O)C(=O)N[C@@H](Cc1c[nH]c2ccccc12)C(=O)N[C@@H](CC(C)C)C(=O)N[C@@H](CC(C)C)C(=O)N[C@@H](C)C(=O)NCC(=O)NCC(=O)N1CCC[C@H]1C(=O)N[C@@H](CO)C(=O)N[C@@H](CO)C(=O)NCC(=O)N[C@@H](C)C(=O)N1CCC[C@H]1C(=O)N1CCC[C@H]1C(=O)N1CCC[C@H]1C(=O)N[C@@H](CO)C(N)=O)C(C)C` [Compound 0156] showed an EC50 (human GIPR) of 0.019 nM.
